The record followed here is US20100120886A1, “ARYL-SUBSTITUTED SULFONAMIDES FOR THE TREATMENT OF COGNITIVE OR FOOD INGESTION RELATED DISORDERS” (LABORATORIOS DEL DR. ESTEVE, S.A., priority 2007, published 2010).

This test concerns the target T1, 5HT6 human recombinant receptor (Homo sapiens, UniProt P50406).
T1 construct: purchased Receptor Biology; host or cells: HEK-293 cell membranes
In words: Binding with Serotonin Receptor 5HT6 ([3H]-LSD radioligand, HEK-293 cell membranes). The settings on record: [3H]-LSD 2.7 nM, HEK-293 membranes; for Ki: non-linear regression EBDA/LIGAND; for inhibition at 0.01 µM: compound 10 nM; for inhibition at 0.01 µM / inhibition at 0.1 µM: 60 min, 37° C.; for inhibition at 0.1 µM: compound 100 nM. The procedure:
Binding with Serotonin Receptor 5HT6
Cell membranes of HEK-293 cells expressing the 5HT6 human recombinant receptor were supplied by Receptor Biology. In said membranes the receptor concentration is 2.18 pmol/mg protein and the protein concentration is 9.17 mg/ml. The experimental protocol follows the method of B. L. Roth et al. [B. L. Roth, S. C. Craigo, M. S. Choudhary, A. Uluer, F. J. Monsma, Y. Shen, H. Y. Meltzer, D. R. Sibley: Binding of Typical and Atypical Antipsychotic Agents to 5-Hydroxytryptamine-6 and Hydroxytriptamine-7 Receptors. The Journal of Pharmacology and Experimental Therapeutics, 1994, 268, 1403] with slight changes. The commercial membrane is diluted (1:40 dilution) with the binding buffer: 50 mM Tris-HCl, 10 mM MgCl2, 0.5 mM EDTA (pH 7.4). The radioligand used is [^3H]-LSD at a concentration of 2.7 nM with a final volume of 200 μl. incubation is initiated by adding 100 μl of membrane suspension, (≈22.9 μg membrane protein), and is prolonged for 60 minutes at a temperature of 37° C. The incubation is ended by fast filtration in a Brandel Cell Harvester through fiber glass filters made by Schleicher & Schuell GF 3362 pretreated with a solution of polyethylenimine at 0.5%. The filters are washed three times with three milliliters of buffer Tris-HCl 50 mM pH 7.4. The filters are transferred to flasks and 5 ml of Ecoscint H liquid scintillation cocktail are added to each flask. The flasks are allowed to reach equilibrium for several hours before counting with a Wallac Winspectral 1414 scintillation counter. Non-specific binding is determined in the presence of 100 μM of serotonin. Tests were made in triplicate. The inhibition constants (Ki, nM) were calculated by non-linear regression analysis using the program EBDA/LIGAND [Munson and Rodbard, Analytical Biochemistry, 1980, 107, 220].

T1 sequence (P50406 whole entry): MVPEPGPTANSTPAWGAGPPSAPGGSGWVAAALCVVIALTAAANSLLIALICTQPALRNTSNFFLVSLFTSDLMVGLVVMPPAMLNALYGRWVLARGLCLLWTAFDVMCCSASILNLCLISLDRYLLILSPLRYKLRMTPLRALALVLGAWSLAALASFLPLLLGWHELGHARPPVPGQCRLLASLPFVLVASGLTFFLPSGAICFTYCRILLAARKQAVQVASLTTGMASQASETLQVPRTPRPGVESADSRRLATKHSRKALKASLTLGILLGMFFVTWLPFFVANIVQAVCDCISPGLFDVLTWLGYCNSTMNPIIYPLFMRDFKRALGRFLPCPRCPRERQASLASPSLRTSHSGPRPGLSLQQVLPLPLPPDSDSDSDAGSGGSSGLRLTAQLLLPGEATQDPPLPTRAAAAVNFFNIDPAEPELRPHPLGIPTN

In general, Ki refers to a measure of affinity in units of concentration, obtained from inhibition or displacement. Usually inhibition stands for the relative decrease from the control value, in per cent. As to `CNCCc1c[nH]c2ccc(NS(=O)(=O)c3cccc4ccccc34)cc12` [Example 2, Naphthalene-1-sulfonic acid [3-(2-methylamino-ethyl)-1H-indol-5-yl]-amide], the inhibitory constant (Ki) is 2.9 nM, the inhibition at 0.01 µM was determined as 83% and the inhibition at 0.1 µM worked out at 91.2%.
For `NCCc1c[nH]c2ccc(NS(=O)(=O)c3ccc4ccccc4c3)cc12` [Example 7, Naphthalene-2-sulfonic acid [3-(2-amino-ethyl)-1H-indol-5-yl]-amide], the Ki is 7.1 ± 1.1 nM, the inhibition at 0.01 µM was found to be 66% and the inhibition at 0.1 µM was determined as 84.6%.
As to `NCCc1c[nH]c2ccc(NS(=O)(=O)c3ccc4c(Cl)cccc4c3)cc12` [Example 8, 5-Chloro-naphthalene-2-sulfonic acid [3-(2-amino-ethyl)-1H-indol-5-yl]-amide], the Ki was 1.4 nM, the inhibition at 0.01 µM is 65.6% and the inhibition at 0.1 µM was determined as 86.1%.
For `Cn1cc(CCN)c2cc(NS(=O)(=O)c3ccc4c(Cl)cccc4c3)ccc21` [Example 9, 5-Chloro-naphthalene-2-sulfonic acid [3-(2-amino-ethyl)-1-methyl-1H-indol-5-yl]-amide], the inhibition at 0.01 µM came out at 34.1% and the inhibition at 0.1 µM turned out to be 78%.
For `CNCCc1cn(C)c2ccc(NS(=O)(=O)c3ccc4c(Cl)cccc4c3)cc12` [Example 6, 5-Chloro-naphthalene-2-sulfonic acid [1-methyl-3-(2-methylamino-ethyl)-1H-indol-5-yl]-amide], the inhibition at 0.01 µM turned out to be 39.7% and the inhibition at 0.1 µM came to 79.8%.
Consider `CCNCCc1c[nH]c2ccc(NS(=O)(=O)c3cccc4ccccc34)cc12` [Example 1, Naphthalene-1-sulfonic acid [3-(2-ethylamino-ethyl)-1H-indol-5-yl]-amide], for which the Ki stood at 3 nM.
For `CCNCCc1c[nH]c2ccc(NS(=O)(=O)c3ccc4c(Cl)cccc4c3)cc12` [Example 3, 5-Chloro-naphthalene-2-sulfonic acid [3-(2-ethylamino-ethyl)-1H-indol-5-yl]-amide], the Ki came to 2 nM, the inhibition at 0.01 µM stood at 60.1% and the inhibition at 0.1 µM came to 82.9%.
On to `CNCCc1c[nH]c2ccc(NS(=O)(=O)c3ccc4c(Cl)cccc4c3)cc12` [Example 4, 5-Chloro-naphthalene-2-sulfonic acid [3-(2-methylamino-ethyl)-1H-indol-5-yl]-amide], for which the inhibition constant (Ki) was 2.1 ± 1.3 nM, the inhibition at 0.01 µM was 64.9% and the inhibition at 0.1 µM was determined as 73.5%.
Consider `NCCc1c[nH]c2ccc(NS(=O)(=O)c3cccc4ccccc34)cc12` [Example 5, Naphthalene-1-sulfonic acid [3-(2-amino-ethyl)-1H-indol-5-yl]-amide], for which the Ki came out at 26.4 nM, the inhibition at 0.01 µM was 41.6% and the inhibition at 0.1 µM came to 76.9%.
